This note sets out measurements from patent US4649204A, “Dialkanolamine derivatives” (McNeilab, Inc., priority 1985, dated 1987).

Where a name gives a salt, the structure may show the parent alone. Read-outs that look alike come from different tables or passages of the source.

This assay has as its system decrease in exploratory activity and ptosis induced with tetrabenazine in mice. The assay is described as follows: tetrabenazine (TBZ) antagonism test: antagonism of the decrease in exploratory activity and ptosis induced by tetrabenazine in mice (antidepressant activity). It counts as in vivo. Particulars: test compound 30 minutes prior to 32 mg/kg i.p. tetrabenazine; for ED50: Mus musculus, ip. On the procedure:
The antidepressant activity was determined using the "classical" tetrabenazine (TBZ) antagonism test. […] J. H. Nodine and J. H. Moyer (Lea and Febiger, Philadelphia) p.
Thirty minutes post tetrabenazine, the mice are tested for the presence of normal exploratory activity and ptosis. […] Three to five dosage levels, 10 mice per dosage level, are used per compound.

Setting [1] is: first figure of EA/Pt, read-out: TBZ ED50, EA (exploratory activity).
[2] abbreviates: second figure of EA/Pt, read-out: TBZ ED50, Pt (ptosis).

For the compound `OCCN(CCO)CC(F)(c1ccccc1)c1ccccc1` [Example VIII, 2,2'-[(2-Fluoro-2,2-diphenylethyl)imino]-bis[ethanol]Dihexamate], the ED50 (as a rule, the dose at which the effect has come halfway, by size or by number of responders) by setting is: under setting [1], 40 mg/kg; under setting [2], 12 mg/kg.
Take `OCCN(CCO)CC(c1ccc(Cl)cc1)c1ccc(Cl)cc1` [Example VII, 2,2'-{[2,2-Bis(4-chlorophenyl)ethyl]imino}bis{ethanol}]: the ED50 was around 60 mg/kg under setting [1] and around 60 mg/kg under setting [2].
As to `CC(O)CN(CC(C)O)CC(c1ccccc1)c1ccccc1.Cl` (stereo not drawn) [III, 1,1'-[(2,2-Diphenylethyl)imino]bis[2-propanol].HCl], for the setting “i.p., first figure of EA/Pt”, the “TBZ ED50, EA (exploratory activity)” value was found to be 11 mg/kg. In addition, the “TBZ ED50, Pt (ptosis)” value (i.p., second figure of EA/Pt) is given as 6 mg/kg.
For `CCC(C(c1ccccc1)c1ccccc1)N(CCO)CCO` (stereo not drawn) [Example IV, 2,2'-[(1,1-Diphenyl-2-butyl)imino]bis[ethanol]Fumarate], the ED50 came out at 23 mg/kg under setting [1] and 19 mg/kg under setting [2].
Consider `CC(C(c1ccccc1)c1ccccc1)N(CCO)CCO` (stereo not drawn) [Example V, 2,2'-[(1,1-Diphenyl-2-propyl)imino]bis[ethanol]Fumarate], for which the ED50 reads like this: under setting [1], 13 mg/kg; under setting [2], 8 mg/kg.
`OCCN(CCO)CC(c1ccccc1)c1ccccc1` [Example I, 2,2'-[(2,2-Diphenylethyl)imino]bis[ethanol]Hydrochloride]: the ED50 is 15 mg/kg under setting [1] and 1.5 mg/kg under setting [2].
On the same counts, the results for `CC(CN(CCO)CCO)(c1ccccc1)c1ccccc1` [II, 2,2'-[(2,2-Diphenylpropyl)imino]bis[ethanol]Hydrochloride] are 28 mg/kg and 35 mg/kg.
In the same order, the values of `O[C@H]1CN(CC(c2ccccc2)c2ccccc2)C[C@@H]1O` [IX, 1-(2,2-Diphenylethyl)pyrrolidine-3,4-diol Hemifumarate] are 35 mg/kg and 6 mg/kg.
In the same order, the values of `OCCN(CCO)CC(c1ccccc1)c1cccs1` (stereo not drawn) [Example VI, 2,2'-{[2-Phenyl]-2-[(2-thienyl)ethyl]imino}bis{ethanol}.HI] are around 60 mg/kg and around 60 mg/kg.
